# According to PubChem BioAssay (NCI):
#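 Five compound concentrations were applied to cells in 96-well plates for 48 hours; endpoints were derived by simple linear interpolation of the resulting dose-response curve. At the TGI there is no net growth.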
# Experiments:
# Test in all cases: NCI-60 cell line screen, 48 h
# MDA-MB-435 = tested on: MDA-MB-435
# SK-MEL-2 melanoma = tested on: SK-MEL-2 melanoma
# UO-31 renal = tested on: UO-31 renal
# NCI-H23 lung = tested on: NCI-H23 lung
# A498 renal = tested on: A498 renal
# SK-MEL-5 melanoma = tested on: SK-MEL-5 melanoma
# CAKI-1 renal = tested on: CAKI-1 renal
# HCT-116 colon = tested on: HCT-116 colon
# NCI-H460 lung = tested on: NCI-H460 lung
# NCI/ADR-RES ovarian = tested on: NCI/ADR-RES ovarian
# SK-MEL-28 melanoma = tested on: SK-MEL-28 melanoma
# ACHN renal = tested on: ACHN renal
# KM12 colon = tested on: KM12 colon
# A549 NSCLC = tested on: A549 NSCLC
# DU-145 prostate = tested on: DU-145 prostate
# K-562 leukemia = tested on: K-562 leukemia
# SW-620 colon = tested on: SW-620 colon
# OVCAR-3 ovarian = tested on: OVCAR-3 ovarian
# NCI-H226 lung = tested on: NCI-H226 lung
# SNB-19 CNS = tested on: SNB-19 CNS
# SF-268 CNS = tested on: SF-268 CNS
# SN12C renal = tested on: SN12C renal
# OVCAR-4 ovarian = tested on: OVCAR-4 ovarian
# OVCAR-5 ovarian = tested on: OVCAR-5 ovarian
# HOP-92 NSCLC = tested on: HOP-92 NSCLC
# PC-3 prostate = tested on: PC-3 prostate
# OVCAR-8 ovarian = tested on: OVCAR-8 ovarian
# MDA-N = tested on: MDA-N
# SR leukemia = tested on: SR leukemia
# HS 578T breast = tested on: HS 578T breast
# NCI-H522 lung = tested on: NCI-H522 lung
# HOP-62 NSCLC = tested on: HOP-62 NSCLC
# T-47D breast = tested on: T-47D breast
# IGROV1 ovarian = tested on: IGROV1 ovarian
# BT-549 breast = tested on: BT-549 breast
# TK-10 renal = tested on: TK-10 renal
# UACC-62 melanoma = tested on: UACC-62 melanoma
# HL-60(TB) leukemia = tested on: HL-60(TB) leukemia
# U251 CNS = tested on: U251 CNS
# RXF 393 renal = tested on: RXF 393 renal
# 786-0 renal = tested on: 786-0 renal
# UACC-257 melanoma = tested on: UACC-257 melanoma
# LOX IMVI melanoma = tested on: LOX IMVI melanoma
# HCT-15 colon = tested on: HCT-15 colon
# MOLT-4 leukemia = tested on: MOLT-4 leukemia
# MALME-3M melanoma = tested on: MALME-3M melanoma
# HT29 colon = tested on: HT29 colon
# SF-295 CNS = tested on: SF-295 CNS
# M14 melanoma = tested on: M14 melanoma
# EKVX NSCLC = tested on: EKVX NSCLC
# MDA-MB-231 breast = tested on: MDA-MB-231 breast
# COLO 205 colon = tested on: COLO 205 colon
# RPMI-8226 leukemia = tested on: RPMI-8226 leukemia
# SK-OV-3 ovarian = tested on: SK-OV-3 ovarian
# HCC-2998 colon = tested on: HCC-2998 colon
# CCRF-CEM leukemia = tested on: CCRF-CEM leukemia
# SNB-75 CNS = tested on: SNB-75 CNS
# SF-539 CNS = tested on: SF-539 CNS
# MCF7 breast = tested on: MCF7 breast
structure (smiles),measurement,setting,value
O=[As](O)(O)c1ccc(N=Nc2ccc([As](=O)(O)O)cc2)cc1,TGI,MDA-MB-435,> 100 µM
same,TGI,SK-MEL-2 melanoma,> 100 µM
same,TGI,UO-31 renal,> 100 µM
same,TGI,NCI-H23 lung,> 100 µM
same,TGI,A498 renal,> 100 µM
same,TGI,SK-MEL-5 melanoma,> 100 µM
same,TGI,CAKI-1 renal,> 100 µM
same,TGI,HCT-116 colon,> 100 µM
same,TGI,NCI-H460 lung,> 100 µM
same,TGI,NCI/ADR-RES ovarian,> 100 µM
same,TGI,SK-MEL-28 melanoma,> 100 µM
same,TGI,ACHN renal,> 100 µM
same,TGI,KM12 colon,> 100 µM
same,TGI,A549 NSCLC,> 100 µM
same,TGI,DU-145 prostate,> 100 µM
same,TGI,K-562 leukemia,> 100 µM
same,TGI,SW-620 colon,> 100 µM
same,TGI,OVCAR-3 ovarian,> 100 µM
same,TGI,NCI-H226 lung,> 100 µM
same,TGI,SNB-19 CNS,> 100 µM
same,TGI,SF-268 CNS,> 100 µM
same,TGI,SN12C renal,> 100 µM
same,TGI,OVCAR-4 ovarian,> 100 µM
same,TGI,OVCAR-5 ovarian,> 100 µM
same,TGI,HOP-92 NSCLC,> 100 µM
same,TGI,PC-3 prostate,> 100 µM
same,TGI,OVCAR-8 ovarian,> 100 µM
same,TGI,MDA-N,> 100 µM
same,TGI,SR leukemia,> 100 µM
same,TGI,HS 578T breast,> 100 µM
same,TGI,NCI-H522 lung,> 100 µM
same,TGI,HOP-62 NSCLC,> 100 µM
same,TGI,T-47D breast,> 100 µM
same,TGI,IGROV1 ovarian,> 100 µM
same,TGI,BT-549 breast,> 100 µM
same,TGI,TK-10 renal,> 100 µM
same,TGI,UACC-62 melanoma,> 100 µM
same,TGI,HL-60(TB) leukemia,> 100 µM
same,TGI,U251 CNS,> 100 µM
same,TGI,RXF 393 renal,> 100 µM
same,TGI,786-0 renal,> 100 µM
same,TGI,UACC-257 melanoma,> 100 µM
same,TGI,LOX IMVI melanoma,> 100 µM
same,TGI,HCT-15 colon,> 100 µM
same,TGI,MOLT-4 leukemia,> 100 µM
same,TGI,MALME-3M melanoma,> 100 µM
same,TGI,HT29 colon,> 100 µM
same,TGI,SF-295 CNS,> 100 µM
same,TGI,M14 melanoma,> 100 µM
same,TGI,EKVX NSCLC,> 100 µM
same,TGI,MDA-MB-231 breast,> 100 µM
CO/N=C(/C(=O)N(C(=O)/C(=N/OC)c1csc(NC(c2ccccc2)(c2ccccc2)c2ccccc2)n1)n1cnn(CC(=O)OC(C)(C)C)c1=O)c1csc(NC(c2ccccc2)(c2ccccc2)c2ccccc2)n1,TGI,MDA-MB-435,> 10 µM
same,TGI,COLO 205 colon,> 10 µM
same,TGI,SK-MEL-2 melanoma,3.92 µM
same,TGI,UO-31 renal,> 10 µM
same,TGI,NCI-H23 lung,> 10 µM
same,TGI,A498 renal,> 10 µM
same,TGI,SK-MEL-5 melanoma,> 10 µM
same,TGI,CAKI-1 renal,> 10 µM
same,TGI,HCT-116 colon,> 10 µM
same,TGI,NCI-H460 lung,> 10 µM
same,TGI,NCI/ADR-RES ovarian,> 10 µM
same,TGI,SK-MEL-28 melanoma,> 10 µM
same,TGI,ACHN renal,> 10 µM
same,TGI,KM12 colon,> 10 µM
same,TGI,A549 NSCLC,> 10 µM
same,TGI,DU-145 prostate,> 10 µM
same,TGI,K-562 leukemia,> 10 µM
same,TGI,RPMI-8226 leukemia,> 10 µM
same,TGI,SW-620 colon,> 10 µM
same,TGI,OVCAR-3 ovarian,> 10 µM
same,TGI,NCI-H226 lung,> 10 µM
same,TGI,SK-OV-3 ovarian,> 10 µM
same,TGI,SNB-19 CNS,> 10 µM
same,TGI,SF-268 CNS,> 10 µM
same,TGI,SN12C renal,> 10 µM
same,TGI,OVCAR-4 ovarian,> 10 µM
same,TGI,OVCAR-5 ovarian,> 10 µM
same,TGI,PC-3 prostate,3.44 µM
same,TGI,OVCAR-8 ovarian,> 10 µM
same,TGI,MDA-N,> 10 µM
same,TGI,HCC-2998 colon,> 10 µM
same,TGI,HS 578T breast,> 10 µM
same,TGI,NCI-H522 lung,> 10 µM
same,TGI,HOP-62 NSCLC,> 10 µM
same,TGI,T-47D breast,> 10 µM
same,TGI,IGROV1 ovarian,> 10 µM
same,TGI,BT-549 breast,3.96 µM
same,TGI,CCRF-CEM leukemia,> 10 µM
same,TGI,TK-10 renal,> 10 µM
same,TGI,UACC-62 melanoma,> 10 µM
same,TGI,HL-60(TB) leukemia,> 10 µM
same,TGI,U251 CNS,> 10 µM
same,TGI,RXF 393 renal,> 10 µM
same,TGI,786-0 renal,> 10 µM
same,TGI,SNB-75 CNS,> 10 µM
same,TGI,UACC-257 melanoma,> 10 µM
same,TGI,LOX IMVI melanoma,> 10 µM
same,TGI,HCT-15 colon,> 10 µM
same,TGI,MOLT-4 leukemia,> 10 µM
same,TGI,MALME-3M melanoma,> 10 µM
same,TGI,HT29 colon,> 10 µM
same,TGI,SF-295 CNS,> 10 µM
same,TGI,SF-539 CNS,> 10 µM
same,TGI,M14 melanoma,> 10 µM
same,TGI,EKVX NSCLC,> 10 µM
same,TGI,MDA-MB-231 breast,> 10 µM
same,TGI,MCF7 breast,> 10 µM
